Values after ≈ are worked out from the molar mass of the structure shown. Read-outs that look alike come from different tables or passages of the source.
Experiments:
[1] = tested on: Escherichia coli ATCC 25922; test: Minimum inhibitory concentration, broth micro-dilution (CLSI), E. coli; assay type: cell-based; details: Escherichia coli, ATCC25922, 22 h, 35° C., 22 hours
[2] = tested on: Methicillin Resistant Staphylococcus aureus strain USA 300, NRS384; test: Minimum inhibitory concentration, broth micro-dilution (CLSI), S. aureus; assay type: cell-based; details: Staphylococcus aureus, MRSA / NRS 384 / USA300, 22 h, 35° C., 22 hours
How it was run: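 Ten-point 2-fold series began at 4 μg/mL in protocol 2 and 0.5 μg/mL in protocol 3, in cation-adjusted MHB plus 0.002% Tween-80. Bacteria added to OD600 0.0005 final and incubated at 35° C for 22 hours per CLSI microdilution.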

[3] = target: T1, SpsB (Staphylococcus aureus signal peptidase) (Staphylococcus aureus, UniProt P0A070); test: cell-based; assay type: biochemical; details: SpsB IC50, whole-cell S. aureus (USA300 background, overexpressing SpsB) as SpsB source; fluorogenic peptide substrate, kinetic read 30 min
T1 construct: This assay uses a suspension of Staphylococcus aureus cells as a source of SpsB instead of recombinant SpsB protein; endogenous in cells; host or cells: S. aureus, USA300 background, overexpressing SpsB (whole-cell suspension from frozen pellets)
How it was run: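 Whole S. aureus cells (USA300, overexpressing SpsB) in PBS with MgCl2, CaCl2 and 0.1% Tween-80 served as enzyme source, mixed with 20 μM stock of (Dabcyl)βAla-KPAKAAE(Edans) substrate before use. Fluorescence (ex 340/em 490 nm) read kinetically over 30 min. IC50 from reaction rate versus 11-point inhibitor concentration.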

[4] = tested on: Escherichia coli MC4100 harboring the IMP4213 (E. coli IMP); test: microbe, parasite or virus in culture; assay type: cell-based; details: Escherichia coli, 22 h, read-out: MIC (μg/mL) E. coli IMP, E. coli MC4100 IMP4213, increased outer-membrane permeability; 35° C., 22 hours
How it was run: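 Colonies grown 20 hours at 35° C were suspended in cation-adjusted Mueller Hinton Broth with 0.002% Tween-80. Cells were then added to 2-fold compound dilutions starting at 4 or 0.5 μg/mL, at OD600 0.0005.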

[5] = E. coli ATCC 25922, read-out: MIC (μg/mL) E. coli
[6] = MRSA USA 300 NRS384, read-out: MIC (μg/mL) S. aureus
[7] = read-out: MIC (μg/mL) E. coli, E. coli ATCC 25922
[8] = read-out: MIC (μg/mL) S. aureus, MRSA USA 300 NRS384

T1 sequence (P0A070 whole entry): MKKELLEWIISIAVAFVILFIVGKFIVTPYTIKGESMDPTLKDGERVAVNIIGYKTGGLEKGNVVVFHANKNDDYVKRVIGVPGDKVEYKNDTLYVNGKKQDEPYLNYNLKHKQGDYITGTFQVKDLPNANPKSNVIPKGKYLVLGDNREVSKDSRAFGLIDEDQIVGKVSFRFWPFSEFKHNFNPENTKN

Compound | MIC [1, 5] | MIC [2, 6] | IC50 [3] | MIC [4] | MIC [1, 7] | MIC [2, 8]
CCCCCCCc1cc(C)c(C(=O)N[C@@H](CCN)C(=O)N(C)[C@@H]2C(=O)N[C@@H](C)C(=O)N[C@H](C(=O)NCC#N)Cc3ccc(OCCN)c(c3)-c3cc2ccc3OCCN)cc1F [Compound 203] | 0.13 µg/mL (≈ 0.149 µM) | 0.031 µg/mL (≈ 0.0355 µM) | 0.72 nM | 0.012 µg/mL (≈ 0.0138 µM) | – | –
Cc1cc(CCC2CCCCC2)ccc1C(=O)N[C@@H](CCN)C(=O)N(C)[C@@H]1C(=O)N[C@@H](C)C(=O)N[C@H](C(=O)NCC#N)Cc2ccc(OCCN)c(c2)-c2cc1ccc2OCCN [Compound 204] | 0.19 µg/mL (≈ 0.219 µM) | 0.031 µg/mL (≈ 0.0358 µM) | 1.2 nM | 0.0078 µg/mL (≈ 0.00901 µM) | – | –
CCCCCCCc1cc(C)c(C(=O)N[C@@H](CCN)C(=O)N(C)[C@@H]2C(=O)N[C@@H](C)C(=O)N[C@H](C(=O)NCC#N)Cc3ccc(OCCN)c(c3)-c3cc2ccc3OCCN)c(Cl)c1 [Compound 205] | 0.25 µg/mL (≈ 0.281 µM) | 0.063 µg/mL (≈ 0.0709 µM) | 0.85 nM | 0.016 µg/mL (≈ 0.018 µM) | – | –
CCCCc1ccc(C(=O)N[C@@H](CCN)C(=O)N(C)[C@@H]2C(=O)N[C@@H](C)C(=O)N[C@H](C(=O)NCC#N)Cc3ccc(OCCN)c(c3)-c3cc2ccc3OCCN)c(C)c1 [Compound 208] | 1.3 µg/mL (≈ 1.6 µM) | 0.25 µg/mL (≈ 0.308 µM) | 0.99 nM | 0.029 µg/mL (≈ 0.0357 µM) | – | –
CCCCCCCCc1ccc(C(=O)N[C@@H](CCN)C(=O)N(C)[C@@H]2C(=O)N[C@@H](C)C(=O)N[C@H](C(=O)NCC#N)Cc3ccc(OCCN)c(c3)-c3cc2ccc3OCCN)c(OC)c1 [Compound 209] | 2 µg/mL (≈ 2.26 µM) | 0.19 µg/mL (≈ 0.215 µM) | 0.92 nM | 0.094 µg/mL (≈ 0.106 µM) | – | –
CCCCCCCCc1ccc(C(=O)N[C@@H](CCN)C(=O)N(C)[C@@H]2C(=O)N[C@@H](C)C(=O)N[C@H](C(=O)NCC#N)Cc3ccc(OCCN)c(c3)-c3cc2ccc3OCCN)c(Cl)c1 [Compound 210] | 0.11 µg/mL (≈ 0.124 µM) | 0.094 µg/mL (≈ 0.106 µM) | 0.8 nM | 0.029 µg/mL (≈ 0.0326 µM) | – | –
CCCCCCCCc1ccc(C(=O)N[C@@H](CCN)C(=O)N(C)[C@@H]2C(=O)N[C@@H](C)C(=O)N[C@H](C(=O)NCC#N)Cc3ccc(OCCN)c(c3)-c3cc2ccc3OCCN)c(S(C)(=O)=O)c1 [Compound 212] | 2 µg/mL (≈ 2.15 µM) | 0.031 µg/mL (≈ 0.0333 µM) | 0.62 nM | 0.047 µg/mL (≈ 0.0504 µM) | – | –
CCCCCCCCc1nc(C)c(C(=O)N[C@@H](CCN)C(=O)N(C)[C@@H]2C(=O)N[C@@H](C)C(=O)N[C@H](C(=O)NCC#N)Cc3ccc(OCCN)c(c3)-c3cc2ccc3OCCN)s1 [Compound 213] | 2 µg/mL (≈ 2.29 µM) | 0.047 µg/mL (≈ 0.0537 µM) | 0.64 nM | 0.023 µg/mL (≈ 0.0263 µM) | – | –
Cc1cc(C2CCC2)ccc1C(=O)N[C@@H](CCN)C(=O)N(C)[C@@H]1C(=O)N[C@@H](C)C(=O)N[C@H](C(=O)NCC#N)Cc2ccc(OCCN)c(c2)-c2cc1ccc2OCCN [Compound 214] | 3 µg/mL (≈ 3.7 µM) | 0.25 µg/mL (≈ 0.309 µM) | 0.98 nM | 0.031 µg/mL (≈ 0.0383 µM) | – | –
Cc1cc(C2CCCC2)ccc1C(=O)N[C@@H](CCN)C(=O)N(C)[C@@H]1C(=O)N[C@@H](C)C(=O)N[C@H](C(=O)NCC#N)Cc2ccc(OCCN)c(c2)-c2cc1ccc2OCCN [Compound 215] | 1.8 µg/mL (≈ 2.18 µM) | 0.19 µg/mL (≈ 0.231 µM) | 0.97 nM | 0.039 µg/mL (≈ 0.0473 µM) | – | –
Cc1cc(C2CC2)ccc1C(=O)N[C@@H](CCN)C(=O)N(C)[C@@H]1C(=O)N[C@@H](C)C(=O)N[C@H](C(=O)NCC#N)Cc2ccc(OCCN)c(c2)-c2cc1ccc2OCCN [Compound 216] | 8 µg/mL (≈ 10.1 µM) | 1 µg/mL (≈ 1.26 µM) | 3.3 nM | 0.25 µg/mL (≈ 0.314 µM) | – | –
Cc1cc(CCC(C)C)ccc1C(=O)N[C@@H](CCN)C(=O)N(C)[C@@H]1C(=O)N[C@@H](C)C(=O)N[C@H](C(=O)NCC#N)Cc2ccc(OCCN)c(c2)-c2cc1ccc2OCCN [Compound 217] | 0.5 µg/mL (≈ 0.605 µM) | 0.094 µg/mL (≈ 0.114 µM) | 0.88 nM | 0.016 µg/mL (≈ 0.0194 µM) | – | –
Cc1cc(CC(C)C)ccc1C(=O)N[C@@H](CCN)C(=O)N(C)[C@@H]1C(=O)N[C@@H](C)C(=O)N[C@H](C(=O)NCC#N)Cc2ccc(OCCN)c(c2)-c2cc1ccc2OCCN [Compound 218] | 2 µg/mL (≈ 2.46 µM) | 0.25 µg/mL (≈ 0.308 µM) | 0.88 nM | 0.031 µg/mL (≈ 0.0382 µM) | – | –
Cc1cc(CC(C)(C)C)ccc1C(=O)N[C@@H](CCN)C(=O)N(C)[C@@H]1C(=O)N[C@@H](C)C(=O)N[C@H](C(=O)NCC#N)Cc2ccc(OCCN)c(c2)-c2cc1ccc2OCCN [Compound 219] | 1.5 µg/mL (≈ 1.82 µM) | 0.19 µg/mL (≈ 0.23 µM) | 1.9 nM | 0.023 µg/mL (≈ 0.0278 µM) | – | –
C[C@@H]1NC(=O)[C@@H](N(C)C(=O)[C@H](CCN)NC(=O)c2ccc(C(C)(C)C)cc2C(F)F)c2ccc(OCCN)c(c2)-c2cc(ccc2OCCN)C[C@@H](C(=O)NCC#N)NC1=O [Compound 220] | – | – | 1.5 nM | 0.047 µg/mL (≈ 0.0554 µM) | 2.5 µg/mL (≈ 2.95 µM) | 0.25 µg/mL (≈ 0.295 µM)
CCCCCCCCc1ccc(C(=O)N[C@@H](CCN)C(=O)N(C)[C@@H]2C(=O)N[C@@H](C)C(=O)N[C@H](C(=O)NCC#N)Cc3ccc(OCCN)c(c3)-c3cc2ccc3OCCN)c(C(F)F)c1 [Compound 221] | 0.19 µg/mL (≈ 0.21 µM) | 0.063 µg/mL (≈ 0.0697 µM) | 1.3 nM | 0.023 µg/mL (≈ 0.0254 µM) | – | –
CCCCCCCCc1ccc(C(=O)N[C@@H](CCN)C(=O)N(C)[C@@H]2C(=O)N[C@@H](C)C(=O)N[C@H](C(=O)NCC#N)Cc3ccc(OCCN)c(c3)-c3cc2ccc3OCCN)c(N)c1 [Compound 223] | 0.25 µg/mL (≈ 0.288 µM) | 0.031 µg/mL (≈ 0.0357 µM) | 1.5 nM | 0.016 µg/mL (≈ 0.0184 µM) | – | –
CCCCCCCc1cc(Cl)c(C(=O)N[C@@H](CCN)C(=O)N(C)[C@@H]2C(=O)N[C@@H](C)C(=O)N[C@H](C(=O)NCC#N)Cc3ccc(OCCN)c(c3)-c3cc2ccc3OCCN)c(Cl)c1 [Compound 226] | 0.38 µg/mL (≈ 0.418 µM) | 0.094 µg/mL (≈ 0.103 µM) | 0.88 nM | 0.012 µg/mL (≈ 0.0132 µM) | – | –
CCCCc1ccc(C(=O)N[C@@H](CCN)C(=O)N(C)[C@@H]2C(=O)N[C@@H](C)C(=O)N[C@H](C(=O)NCC#N)Cc3ccc(OCCN)c(c3)-c3cc2ccc3OCCN)cn1 [Compound 227] | 16 µg/mL (≈ 20 µM) | 1.5 µg/mL (≈ 1.88 µM) | 5.5 nM | 0.38 µg/mL (≈ 0.476 µM) | – | –
CCCCCc1ccc(C(=O)N[C@@H](CCN)C(=O)N(C)[C@@H]2C(=O)N[C@@H](C)C(=O)N[C@H](C(=O)NCC#N)Cc3ccc(OCCN)c(c3)-c3cc2ccc3OCCN)c(C2CC2)c1 [Compound 229] | 1.5 µg/mL (≈ 1.76 µM) | 0.047 µg/mL (≈ 0.0552 µM) | 0.92 nM | 0.016 µg/mL (≈ 0.0188 µM) | – | –
CCCCc1cc(C)c(C(=O)N[C@@H](CCCN)C(=O)N(C)[C@@H]2C(=O)N[C@@H](C)C(=O)N[C@H](C(=O)NCC#N)Cc3ccc(OCCN)c(c3)-c3cc2ccc3OCCN)c(C)c1 [Compound 230] | 4 µg/mL (≈ 4.76 µM) | 0.38 µg/mL (≈ 0.452 µM) | 1.3 nM | 0.031 µg/mL (≈ 0.0369 µM) | – | –
CCCCCCCCCCCC(=O)N[C@@H](CO)C(=O)N(C)[C@@H]1C(=O)N[C@@H](C)C(=O)N[C@H](C(=O)NCC#N)Cc2ccc(OCCN)c(c2)-c2cc1ccc2OCCN [Compound 231] | 8 µg/mL (≈ 9.91 µM) | 0.13 µg/mL (≈ 0.161 µM) | 0.57 nM | 0.063 µg/mL (≈ 0.0781 µM) | – | –
CCCCCCCCCC(=O)N[C@@H](CO)C(=O)N(C)[C@@H]1C(=O)N[C@@H](C)C(=O)N[C@H](C(=O)NCC#N)Cc2ccc(OCCN)c(c2)-c2cc1ccc2OCCN [Compound 232] | > 64 µg/mL | 1.5 µg/mL (≈ 1.93 µM) | 2.4 nM | 0.25 µg/mL (≈ 0.321 µM) | – | –
C[C@@H]1NC(=O)[C@@H](N(C)C(=O)[C@H](CO)NC(=O)c2ccc(-c3ccc(Cl)cc3)cc2)c2ccc(OCCN)c(c2)-c2cc(ccc2OCCN)C[C@@H](C(=O)NCC#N)NC1=O [Compound 233] | – | – | 4 nM | 0.13 µg/mL (≈ 0.155 µM) | 32 µg/mL (≈ 38.1 µM) | 0.5 µg/mL (≈ 0.596 µM)

— patent publication US20180327367A1, “MACROCYCLIC BROAD SPECTRUM ANTIBIOTICS” (priority 2015, published 2018)
